A word on the melting point: it is the temperature, or range, at which the solid turns liquid.

Data set [1] has as its system Respiratory Syncytial Virus. In words: microbe, parasite or virus in culture. In kind it is cell-based. The settings on record: for EC50: read-out: Activity (converted). The source says: The percent protection against cytopathology caused by viruses (antiviral activity or EC50) achieved by tested compounds and their cytotoxicity (CC50) are both calculated from dose-response curves. The selectivity of the antiviral effect is represented by the selectivity index (SI), calculated by dividing the CC50 (cytotoxic dose for 50% of the cells) by the EC50 (antiviral activity for 50% of the cells).
Automated tetrazolium-based […] assays were used for determination of EC50 and CC50 of test compounds. Flat-bottom, 96-well plastic microtiter trays were filled with 180 μl of Eagle's Basal Medium, supplemented with 5% FCS (0% for FLU) and 20 mM Hepes buffer. Subsequently, stock solutions (7.8× final test concentration) of compounds were added in 45 μl volumes to a series of triplicate wells so as to allow simultaneous evaluation of their effects on virus- and mock-infected cells. Five five-fold dilutions were made directly in the microtiter trays using a robot system. Untreated virus controls, and HeLa cell controls were included in each test. Approximately 100 TCID50 of Respiratory Syncytial Virus was added to two of the three rows in a volume of 50 μl. The same volume of medium was added to the third row to measure the cytotoxicity of the compounds at the same concentrations as those used to measure the antiviral activity. After two hours of incubation, a suspension (4×10^5 cells/ml) of HeLa cells was added to all wells in a volume of 50 μl. The cultures were incubated at 37° C. in a 5% CO2 atmosphere. Seven days after infection the cytotoxicity and the antiviral activity was examined spectrophotometrically. To each well of the microtiter tray, 25 μl of a solution of MTT (3-(4,5-dimethylthiazol-2-yl)-2,5-diphenyltetrazolium bromide) was added. The trays were further incubated at 37° C. for 2 hours, after which the medium was removed from each cup. Solubilization of the formazan crystals was achieved by adding 100 μl 2-propanol. Complete dissolution of the formazan crystals were obtained after the trays have been placed on a plate shaker for 10 min. Finally, the absorbances were read in an eight-channel computer-controlled photometer (Multiskan MCC, Flow Laboratories) at two wavelengths (540 and 690 nm). The absorbance measured at 690 nm was automatically subtracted from the absorbance at 540 nm, so as to eliminate the effects of non-specific absorption.

[2] abbreviates: human respiratory syncytial virus, 168 h, Table 1, pEC50 (−log of EC50 in molar units), RSV-infected HeLa cells, MTT read-out seven days after infection.
Where [3] appears, read: human respiratory syncytial virus, 168 h, Table 3, pEC50 (−log of EC50 in molar units), RSV-infected HeLa cells, MTT read-out seven days after infection.

pEC50: −log10 of the molar value. Read-outs that look alike come from different tables or passages of the source.

With `Cc1cc(C)c2nc(NC3CCN(CCC(N)=O)CC3)n(Cc3nc(C)ccc3O)c2c1`, the melting point was 212 °C.

In the case of “6-methyl-2-[4-methyl-2-(1-methyl-piperidin-4-ylamino)-benzoimidazol-1-ylmethyl]-pyridin-3-ol [Compound 34]”, the Activity in data set [1] (Table 3, pEC50 (−log of EC50 in molar units), RSV-infected HeLa cells, MTT read-out seven days after infection) is reported as 6.8.

`Cc1cc(C)c2nc(NC3CCN(CCCS(N)(=O)=O)CC3)n(Cc3nc(C)ccc3O)c2c1` [Compound 1, 3-{4-[1-(3-hydroxy-6-methyl-pyridin-2-ylmethyl)-4,6-dimethyl-1H-benzoimidazol-2-ylamino]-piperidin-1-yl}-propane-1-sulfonic acid amide]: the melting point was determined as 180 °C. Moreover, the EC50 in data set [1] (setting [2]) was 2 nM.

`Cc1cc(C)c2nc(NC3CCN(CCO)CC3)n(Cc3nc(C)ccc3O)c2c1` [Compound 2, 2-{2-[1-(2-hydroxy-ethyl)-piperidin-4-ylamino]-4,6-dimethyl-benzoimidazol-1-ylmethyl}-6-methyl-pyridin-3-ol] came in with a melting point of 177 °C. In addition, the EC50 in data set [1] (setting [2]) is 3.16 nM.

Compound `Cc1cc(C)c2nc(NC3CCN(CCCO)CC3)n(Cc3nc(C)ccc3O)c2c1` [Compound 4, 2-{2-[1-(3-hydroxy-propyl)-piperidin-4-ylamino]-4,6-dimethyl-benzoimidazol-1-ylmethyl}-6-methyl-pyridin-3-ol] registered a melting point of 209 °C. In addition, the EC50 in data set [1] (setting [2]) is 7.94 nM.

In turn, `CCOC(=O)CCN1CCC(Nc2nc3c(C)cc(C)cc3n2Cc2nc(C)ccc2O)CC1` [Compound 10, 3-{4-[1-(3-Hydroxy-6-methyl-pyridin-2-ylmethyl)-4,6-dimethyl-1H-benzoimidazol-2-ylamino]-piperidin-1-yl}-propionic acid ethyl ester] returned a melting point of 172 °C. In addition, the EC50 in data set [1] (setting [2]) is 79.4 nM.

Compound `Cc1cc(C)c2c(c1)nc(NC1CCN(CCO)CC1)n2Cc1nc(C)ccc1O` [Compound 15, 2-{2-[1-(2-hydroxy-ethyl)-piperidin-4-ylamino]-5,7-dimethyl-benzoimidazol-1-ylmethyl}-6-methyl-pyridin-3-ol] had a melting point of 143 °C. The EC50 in data set [1] (human respiratory syncytial virus, 168 h, Table 2, pEC50 (−log of EC50 in molar units), RSV-infected HeLa cells, MTT read-out seven days after infection) was 398 nM.

In the case of `Cc1ccc(O)c(Cn2c(NC3CCN(CCN4CCCC4)CC3)nc3c(C)cccc32)n1` [Compound 18, 6-Methyl-2-{4-methyl-2-[1-(2-pyrrolidin-1-yl-ethyl)-piperidin-4-ylamino]-benzoimidazol-1-ylmethyl}-pyridin-3-ol], the melting point was found to be 225 °C. In data set [1] (setting [3]), the EC50 is 10 nM.

The compound `Cc1ccc(O)c(Cn2c(NC3CCN(CCCS(N)(=O)=O)CC3)nc3c(C)cccc32)n1` [Compound 19, 3-{4-[1-(3-hydroxy-6-methyl-pyridin-2-ylmethyl)-4-methyl-1H-benzoimidazol-2-ylamino]-piperidin-1-yl}-propane-1-sulfonic acid amide] displayed a melting point of 250 °C. Besides, the EC50 in data set [1] (setting [3]) was 12.6 nM.

Compound `Cc1ccc(O)c(Cn2c(NC3CCN(CCOC(=O)Cc4ccccc4)CC3)nc3c(C)cccc32)n1` [Compound 24, Phenyl-acetic acid 2-{4-[1-(3-hydroxy-6-methyl-pyridin-2-ylmethyl)-4-methyl-1H-benzoimidazol-2-ylamino]-piperidin-1-yl}-ethyl ester] returned a melting point of 207 °C. The pEC50 in data set [1] (human respiratory syncytial virus, HeLa, 168 h, read-out: Activity) is 7.50.

`Cc1ccc(O)c(Cn2c(NC3CCN(CCC(N)=O)CC3)nc3c(C)cccc32)n1` [Compound 27, 3-{4-[1-(3-Hydroxy-6-methyl-pyridin-2-ylmethyl)-4-methyl-1H-benzoimidazol-2-ylamino]-piperidin-1-yl}-propionamide] yielded a melting point of 258 °C. Also, the EC50 in data set [1] (setting [3]) was 50.1 nM.

`CCOC(=O)CCN1CCC(Nc2nc3c(C)cccc3n2Cc2nc(C)ccc2O)CC1` [Compound 32, 3-{4-[1-(3-Hydroxy-6-methyl-pyridin-2-ylmethyl)-4-methyl-1H-benzoimidazol-2-ylamino]-piperidin-1-yl}-propionic acid ethyl ester] gave a melting point of 226 °C. For the same compound, the EC50 in data set [1] (setting [3]) is 158 nM.

For the compound `Cc1ccc(O)c(Cn2c(NC3CCN(CCC(=O)O)CC3)nc3c(C)cccc32)n1.Cl` [Compound 33, 3-{4-[1-(3-hydroxy-6-methyl-pyridin-2-ylmethyl)-4-methyl-1H-benzoimidazol-2-ylamino]-piperidin-1-yl}-propionic acid hydrochloride salt], the melting point worked out at 245 °C. Moreover, the EC50 in data set [1] (setting [3]) is 158 nM.

`Cc1ccc(O)c(Cn2c(NC3CCN(CC(O)C(C)C)CC3)nc3c(C)cccc32)n1` (stereo not drawn) [Compound 35, 2-{2-[1-(2-hydroxy-3-methyl-butyl)-piperidin-4-ylamino]-4-methyl-benzoimidazol-1-ylmethyl}-6-methyl-pyridin-3-ol] registered a melting point of 230 °C. The EC50 in data set [1] (setting [3]) was 158 nM.

In turn, `Cc1ccc(O)c(Cn2c(NC3CCN(CCOC(N)=O)CC3)nc3c(C)cccc32)n1` [Compound 37, Carbamic acid 2-{4-[1-(3-hydroxy-6-methyl-pyridin-2-ylmethyl)-4-methyl-1H-benzoimidazol-2-ylamino]-piperidin-1-yl}-ethyl ester] yielded a melting point of 222 °C. Further, the EC50 in data set [1] (setting [3]) is 158 nM.

`COc1ccc(OCC(O)CN2CCC(Nc3nc4c(C)cccc4n3Cc3nc(C)ccc3O)CC2)cc1` (stereo not drawn) [Compound 41, 2-(2-{1-[2-hydroxy-3-(4-methoxy-phenoxy)-propyl]-piperidin-4-ylamino}-4-methyl-benzoimidazol-1-ylmethyl)-6-methyl-pyridin-3-ol] yielded a melting point of 227 °C. In addition, the EC50 in data set [1] (setting [3]) was 316 nM.

Values taken from patent US7355051B2, “Piperdine-amino-benzimidazole derivatives as inhibitors of respiratory syncytial virus replication” (Tibotec Pharmaceuticals, priority 2003, dated 2008).
